Data from PubChem BioAssay (NCI).
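GI50 = concentration required for 50% inhibition of growth. Definition used: TGI = concentration required for complete inhibition of growth.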

Experiments:
Assay in all cases: DTP human tumour cell line panel, 384-well format
NCI-H23 lung = test system: NCI-H23 lung
NCI-H322M lung = test system: NCI-H322M lung
NCI-H460 NSCLC = test system: NCI-H460 NSCLC
NCI-H522 lung = test system: NCI-H522 lung
NCI/ADR-RES ovarian = test system: NCI/ADR-RES ovarian
OVCAR-3 ovarian = test system: OVCAR-3 ovarian
OVCAR-4 ovarian = test system: OVCAR-4 ovarian
OVCAR-5 ovarian = test system: OVCAR-5 ovarian
PC-3 prostate = test system: PC-3 prostate
RPMI-8226 leukemia = test system: RPMI-8226 leukemia
RXF 393 renal = test system: RXF 393 renal
SF-268 CNS = test system: SF-268 CNS
SF-295 CNS = test system: SF-295 CNS
SF-539 CNS = test system: SF-539 CNS
SK-MEL-2 melanoma = test system: SK-MEL-2 melanoma
SK-MEL-28 melanoma = test system: SK-MEL-28 melanoma
SK-MEL-5 melanoma = test system: SK-MEL-5 melanoma
SK-OV-3 ovarian = test system: SK-OV-3 ovarian
SN12C renal = test system: SN12C renal
SNB-19 CNS = test system: SNB-19 CNS
SNB-75 CNS = test system: SNB-75 CNS
SR leukemia = test system: SR leukemia
SW-620 colon = test system: SW-620 colon
T-47D breast = test system: T-47D breast
U251 glioblastoma = test system: U251 glioblastoma
UACC-257 melanoma = test system: UACC-257 melanoma
UACC-62 melanoma = test system: UACC-62 melanoma
UO-31 renal = test system: UO-31 renal

Work on `C[C@@H](NC(=O)/C(C#N)=C/c1ccc([N+](=O)[O-])cc1)c1ccccc1` yielded a TGI (NCI-H23 lung) of 3.39 µM, a GI50 (NCI-H322M lung) of 1.98 µM and a TGI (NCI-H322M lung) of 3.82 µM. The GI50 (NCI-H460 NSCLC) was 1.74 µM, the TGI (NCI-H460 NSCLC) was 3.24 µM and the GI50 (NCI-H522 lung) was 0.271 µM. For the same compound, the TGI (NCI-H522 lung) was 0.964 µM, the GI50 (NCI/ADR-RES ovarian) was 2.08 µM and the TGI (NCI/ADR-RES ovarian) was 4.65 µM. The GI50 (OVCAR-3 ovarian) was 1.61 µM, the TGI (OVCAR-3 ovarian) was 3.12 µM and the GI50 (OVCAR-4 ovarian) was 1.73 µM. For the same compound, the TGI (OVCAR-4 ovarian) was 3.3 µM, the GI50 (OVCAR-5 ovarian) was 2.57 µM and the TGI (OVCAR-5 ovarian) was 6.52 µM. For the same compound, the GI50 (PC-3 prostate) was 2 µM, the TGI (PC-3 prostate) was 3.93 µM and the GI50 (RPMI-8226 leukemia) was 1.7 µM. For the same compound, the TGI (RPMI-8226 leukemia) was 3.09 µM, the GI50 (RXF 393 renal) was 1.72 µM and the TGI (RXF 393 renal) was 3.15 µM. It also gave a GI50 (SF-268 CNS) of 2.23 µM, a TGI (SF-268 CNS) of 5.52 µM and a GI50 (SF-295 CNS) of 1.94 µM. The TGI (SF-295 CNS) was 3.85 µM, the GI50 (SF-539 CNS) was 2.18 µM and the TGI (SF-539 CNS) was 4.3 µM. The GI50 (SK-MEL-2 melanoma) was 2.02 µM, the TGI (SK-MEL-2 melanoma) was 3.57 µM and the GI50 (SK-MEL-28 melanoma) was 3.48 µM. The TGI (SK-MEL-28 melanoma) was 9.82 µM, the GI50 (SK-MEL-5 melanoma) was 2.09 µM and the TGI (SK-MEL-5 melanoma) was 3.79 µM. The GI50 (SK-OV-3 ovarian) was 2.19 µM, the TGI (SK-OV-3 ovarian) was 4.54 µM and the GI50 (SN12C renal) was 2.01 µM. The TGI (SN12C renal) was 4.19 µM, the GI50 (SNB-19 CNS) was 2.33 µM and the TGI (SNB-19 CNS) was 5.78 µM. The GI50 (SNB-75 CNS) was 1.76 µM, the TGI (SNB-75 CNS) was 3.24 µM and the GI50 (SR leukemia) was 1.28 µM. The TGI (SR leukemia) was 2.58 µM, the GI50 (SW-620 colon) was 1.88 µM and the TGI (SW-620 colon) was 3.39 µM. For the same compound, the GI50 (T-47D breast) was 2.75 µM, the TGI (T-47D breast) was 5.85 µM and the GI50 (U251 glioblastoma) was 1.74 µM. It also gave a TGI (U251 glioblastoma) of 3.26 µM, a GI50 (UACC-257 melanoma) of 3.39 µM and a TGI (UACC-257 melanoma) of 9.81 µM. For the same compound, the GI50 (UACC-62 melanoma) was 1.82 µM, the TGI (UACC-62 melanoma) was 3.51 µM and the GI50 (UO-31 renal) was 1.34 µM. It also gave a TGI (UO-31 renal) of 2.66 µM.
